Measurements: patent publication US11919886B2, “4,9-dioxo-4,9-dihydronaphtho[2,3-B]furan-3-carboxamide derivatives and uses thereof for treating proliferative diseases and infectious diseases” (Academia Sinica, priority 2016, dated 2024)
pIC50: −log10 of the molar value. ≈ marks a conversion by molar mass, not a printed value. Like-named read-outs stand apart in the source and are kept apart here.

Legend:
Escherichia coli [1] = experiment: MIC, broth micro dilution method; type: cell-based
Escherichia coli [2] = experiment: Bacterial growth by Alamar Blue in Muller-Hinton broth; type: cell-based; settings: 16-24 hours, read-out: % of the activities in the presence of ~10 μM compound, Escherichia coli
Description: (§1) Compound 1 and its analogues shown in Table 6 below were tested for their activities on cancer cells and bacterial cells using assays described herein. H1975, MDA-MB231, and MCF7 cells were incubated in the presence of the compounds in cell growth medium containing 10% fetal bovine serum for two days in a mammalian cell culture incubatoe. Cell viability were monitored by using Cell-TiterGlo. Staphylococcus aureus and Escherichia coli were incubated in the presence of the compounds in Muller-Hinton broth for 16-24 hours in a 37° C. incubator. Bacterial growth was monitored by using Alamar Blue (Invitrogen).

Staphylococcus aureus = experiment: as above; type: cell-based
Description: as §1

Enterococcus faecalis = experiment: MIC, broth micro dilution method; type: cell-based
[3] = test system: A549 (adenocarcinomic human alveolar basal epithelial cells); experiment: SRB cytotoxicity assay, A549; settings: A549, 72 h
H1975 cells [4] = experiment: Cell cycle analysis by propidium iodide flow cytometry; settings: 72 h
[5] = test system: Streptococcus gallolyticus subsp. pasteurianus; experiment: MIC, broth micro dilution method; type: cell-based; settings: strain ATCC43144, S. bovis
Shigella sonnei = experiment: MIC, broth micro dilution method; type: cell-based
[6] = test system: HS68 (human foreskin fibroblast cells, used as normal cells); experiment: SRB cytotoxicity assay, HS68 normal cells; settings: Hs68, 72 h
H1975 cells [7] = experiment: Replication fork number by MCM2 immunofluorescence staining; type: cell-based, human; settings: H1975, 140 nM, 48 h
Description: In addition, to evaluate the effects of compound 1 on the progression of DNA replication, the number of replication forks was determined by MCM2 immunofluorescence staining in H1975 cells released from the G1 phase with DMSO and with compound 1 treatment. Exemplary results are shown in Panel (B) of FIG. 2. To evaluate the effects on DNA replication of compound 1, H1975 cells were arrested in G1 by contact inhibition. After 3 days, the cells were re-plated at a low density on cover slips and allowed to progress through the cell cycle. The cells were pulsed with 140 nM compound for 48 h and were fixed for 10 minutes at room temperature in 3.7% cold paraformaldehyde in PBS (pH 7.2), washed 3 times with PBS, and permeabilized for 10 minutes at room temperature in PBS containing 0.1% Triton X-100. The cells were blocked with PBS containing 3% bovine serum albumin and stained overnight at 4° C. with primary antibodies against MCM2, followed by incubation for 1 hour at 37° C. with Alexa Fluor 488 Goat Anti-Mouse IgG (Life Technologies Corporation), respectively. The cells were mounted onto microscope slides with ProLong Gold Antifade Reagent with DAPI (4′,6-Diamidino-2-phenylindole dihydrochloride) (Life Technologies Corporation) and then examined and photographed using Zeiss LSM 700 Confocal (Zeiss, Urbana, IL). […] (Panel (B) of FIG. 2)

[8] = test system: Streptococcus gallolyticus subsp. gallolyticus; experiment: MIC, broth micro dilution method; type: cell-based; settings: strain ATCC43143, S. bovis
H1975 cells [9] = experiment: BrdU incorporation (DNA replication) by flow cytometry; type: cell-based, human; settings: H1975, treated 12, 24 or 48 h
Description: Panel (A): A chart showing DNA replication in Compound 1-treated H1975 cells was inhibited. DNA histograms (BrdU incorporation vs. DNA content) of DMSO or compound 1-treated H1975 cells are shown at 12 to 48 hours. The H1975 cells were BrdU-pulsed (BD Pharmingen™ BrdU Flow Kit Staining) and analyzed by flow cytometry. Panel (B): A chart showing compound 1 decreased the replication fork number. The replication forks were analyzed by immunofluorescence staining with anti-MCM2 antibodies (see row labeled “MCM2” and “Merge with DAPI”) and DAPI (see row labeled “Merge with DAPI”). The quantification was made by counting signals obtained with the anti-MCM2 antibody using Image J software. (n=5 cells per group; original magnification, ×1000). Panel (C): A chart showing compound 1-treated H1975 cells have a prolonged S phase. A double thymidine block was performed, and the data were collected at the indicated time points.
To evaluate the effects on DNA replication of Compound 1, the levels of BrdU (5′-bromo′-2′-deoxyuridine) incorporation were examined. Exemplary results are shown in Panel (A) of FIG. 2. […] The content of BrdU was assessed using fluorescent antibodies. […] The samples were analyzed in a FACS caliber flow cytometer (Becton Dickinson, Sweden) for dot plot histogram analysis (BrdU incorporation vs. DNA content).

Cc1oc2c(c1C(=O)NCCCn1ccnc1)C(=O)c1ccccc1C2=O [Compound 1, N-(3-(1H-Imidazol-1-yl)propyl)-2-methyl-4,9-dioxo-4,9-dihydronaphtho [2,3-b]furan-3-carboxamide]
MIC (Escherichia coli [1]; read-out: MIC (μg/ml) 100%, strain ATCC33625, gram negative): > 32 µg/mL
MIC (Escherichia coli [1]; strain ATCC33625, gram negative, read-out: MIC (μg/ml) 50%): > 32 µg/mL
activity at 10 µM (Escherichia coli [2]): > 100%
MIC (Staphylococcus aureus): 2 µg/mL (≈ 5.5 µM)
activity at 10 µM (Staphylococcus aureus; ~10 μM, 16-24 hours, Alamar Blue, read-out: % of the activities in the presence of ~10 μM compound, Staphylococcus aureus): 38.1%
MIC (Enterococcus faecalis; read-out: MIC (μg/ml) 100%, strain ATCC19433): 32 µg/mL (≈ 88.1 µM)
MIC (Enterococcus faecalis; strain ATCC19433, read-out: MIC (μg/ml) 50%): 16 µg/mL (≈ 44 µM)
pIC50 [3]: 7.28
Phase(%) G1 (H1975 cells [4]; H1975, 35 nM): 70%
Phase(%) G2/M (H1975 cells [4]; H1975, 35 nM): 23%
Phase(%) S (H1975 cells [4]; H1975, 35 nM): 4%
Phase(%) subG1 (H1975 cells [4]; H1975, 35 nM): 1%
Phase(%) G1 (H1975 cells [4]; H1975, 70 nM): 58%
Phase(%) G2/M (H1975 cells [4]; H1975, 70 nM): 31%
Phase(%) S (H1975 cells [4]; H1975, 70 nM): 7%
Phase(%) subG1 (H1975 cells [4]; H1975, 70 nM): 1%
Phase(%) G1 (H1975 cells [4]; H1975, 140 nM): 39%
Phase(%) G2/M (H1975 cells [4]; H1975, 140 nM): 38%
Phase(%) S (H1975 cells [4]; H1975, 140 nM): 18%
Phase(%) subG1 (H1975 cells [4]; H1975, 140 nM): 4%
MIC ([5]; read-out: MIC (μg/ml) 100%): 4 µg/mL (≈ 11 µM)
MIC ([5]; read-out: MIC (μg/ml) 50%): 2 µg/mL (≈ 5.5 µM)
MIC (Shigella sonnei; read-out: MIC (μg/ml) 100%, strain ATCC9290, gram negative): > 32 µg/mL
MIC (Shigella sonnei; strain ATCC9290, gram negative, read-out: MIC (μg/ml) 50%): > 32 µg/mL
pIC50 [6]: < 6.00
number of the replication fork (H1975 cells [7]): 176.8±8.721
MIC ([8]; read-out: MIC (μg/ml) 100%): 4 µg/mL (≈ 11 µM)
MIC ([8]; read-out: MIC (μg/ml) 50%): 2 µg/mL (≈ 5.5 µM)
percentages of BrdU-positive cells vs DMSO control (H1975 cells [9]): lower than those in the DMSO control group
